We go through nine molecules from publication PMC9775191, “A Subset Screen of the Compounds Australia Scaffold Library Identifies 7-Acylaminodibenzoxazepinones as Potent and Selective Hits for Anti-Giardia Drug Discovery” (Biomedicines, 2022).

In general, inhibition refers to the drop in the measured response relative to a control, in per cent. One may read the IC50 as the concentration that gives 50% inhibition.

Where two headings read alike, the source gives them in different places.

Assay [1] deals with G. duodenalis BRIS/91/HEPU/1279. As to the kind of experiment: Primary Giardia screen at 10 µM (live-cell imaging, automated counting). The assay is classed as cell-based, Giardia duodenalis. The conditions noted are these: for inhibition at 10 µM: Giardia duodenalis. An outline of the steps: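 Compound added to 10 μM final in medium with 0.2% DMSO, one well each; plates then held in sealed chambers at 3% O2, 5% CO2 in N2; growth imaged and counted automatically at 24 and 48 h; values normalised to vehicle wells minus media blank.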

The test system is the same in assay [2]. As to the kind of experiment: Giardia dose response assay, assemblage B. The assay is classed as cell-based, Giardia duodenalis. The conditions noted are these: Giardia duodenalis; for IC50: ±SD, max 10 µM. The method, boiled down:
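Assemblage B trophozoites (BRIS/91/HEPU/1279, 1.5 × 10^4 parasites/well) faced 8–12-point doubling dilutions in duplicate, incubated 48 h at 37 °C under 3% O2, 5% CO2 in N2. Parasites were imaged and counted at 24 and 48 h. Growth inhibition was taken versus vehicle controls minus background, with IC50 by log-linear interpolation.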

Assay [3] concerns Neonatal foreskin fibroblast (NFF) cells. As to the kind of experiment: Mammalian cell cytotoxicity assay (sulforhodamine B). The format is cell-based, human. To be noted: for inhibition at 20 µM: Homo sapiens, NFF, ±SD; for SI (48h Gd): Table S2, NFF vs 48 h Giardia IC50. The method, boiled down:
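Cytotoxicity against neonatal foreskin fibroblasts was read by sulforhodamine B staining, with media-only, untreated, DMSO-vehicle and chloroquine controls. Dose–response started at 100 µM. Selectivity index = NFF IC50 divided by G. duodenalis BRIS/91/HEPU/1279 IC50.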

Assay [4] relates to Acinetobacter baumannii (ATCC 19606). As to the kind of experiment: Anti-bacterial activity assay. The conditions noted are these: ATCC19606, 50 µM. The format is cell-based. The method, boiled down:
(§1)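 Compounds tested once at 50 µM in duplicate against mid-log cultures at 5 × 10^5 CFU/mL, incubated 18 h at 37 °C without shaking. Growth read by absorbance at 600 nm; percentage inhibition calculated relative to bacteria-only wells. Vancomycin (Gram-positive) and colistin (Gram-negative) served as plate controls.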

The test system of assay [5] is Escherichia coli (ATCC 25922). As to the kind of experiment: Anti-bacterial activity assay. The format is cell-based. The conditions noted are these: Escherichia coli, ATCC25922, 50 µM; read-out: Bacterial Inhibition E. coli. An outline of the steps:
as §1

Assay [6] relates to Klebsiella pneumoniae (ATCC 700603). As to the kind of experiment: Anti-bacterial activity assay. The format is cell-based. The conditions noted are these: ATCC700603, 50 µM, read-out: Bacterial Inhibition K. pneumoniae. An outline of the steps:
as §1

Assay [7] has as its system methicillin resistant Staphylococcus aureus (ATCC 43300). As to the kind of experiment: Anti-bacterial activity assay. The assay is classed as cell-based. The conditions noted are these: Staphylococcus aureus, ATCC43300, 50 µM; read-out: Bacterial Inhibition S. aureus. An outline of the steps:
as §1

[8] abbreviates: 24 h, first singlicate assay, read-out: % Inhibition n=1 24h.
The mark [9] stands for this setting: 24 h, re-assessment, read-out: % Inhibition n=2 24h.
The mark [10] stands for this setting: 24 h, read-out: Average % Inhibition 24h.
Setting [11] is: 48 h, first singlicate assay, read-out: % Inhibition n=1 48h.
The mark [12] stands for this setting: 48 h, re-assessment, read-out: % Inhibition n=2 48h.
Where [13] appears, read: 48 h, read-out: Average % Inhibition 48h.
[14] abbreviates: 24 h, read-out: G. duodenalis IC50 24h, Table S2, 24 h.
The mark [15] stands for this setting: 48 h, Table S2, 48 h, read-out: G. duodenalis IC50 48h.

`COc1cc(NS(=O)(=O)c2ccc(C)cc2)cc2sc(NC(=O)c3ccccc3)nc12` [SN00790147, COc1cc(cc2sc(NC(=O)c3ccccc3)nc12)NS(=O)(=O)c1ccc(C)cc1]: the inhibition at 10 µM in assay [1] (setting [8]) came out at 34.5%; in assay [1] (setting [9]), 12.8%; in assay [1] (setting [10]), 23.6%; in assay [1] (setting [11]), 56.9%; in assay [1] (setting [12]), 43.2%; in assay [1] (setting [13]) it was 50.1%. Moreover, the IC50 in assay [2] (setting [14]) and in assay [2] (setting [15]) was > 10 µM in each case. Moreover, in assay [3], the inhibition at 20 µM was determined as 53.3 ± 7.1%. Moreover, the inhibition at 50 µM is 3.03% in assay [4], -1.53% in assay [5], 6.94% in assay [6] and 11.9% in assay [7].
With `Cc1ccc(C)c(-c2cc3c4nn(CC(=O)N(C)c5ccc(F)cc5)c(=O)n4ccn3n2)c1` [SN00790641, Fc1ccc(cc1)N(C)C(=O)Cn1nc2c3cc(nn3ccn2c1=O)c1cc(C)ccc1C], the “Average % Inhibition 48h” value in assay [1] (48 h) is given as > 90%. In addition, the inhibition at 10 µM in assay [1] (setting [8]) worked out at 88.6%; in assay [1] (setting [9]) it was 70.6%; in assay [1] (setting [10]), 79.6%; in assay [1] (setting [11]), 95%; in assay [1] (setting [12]) it was 97.7%; in assay [1] (setting [13]) it was 96.3%. Further, the values for the IC50 in assay [2] (setting [14]) and in assay [2] (setting [15]) were 2.84 µM and 3.41 ± 2.02 µM, respectively. For the same molecule, in assay [3], the inhibition at 20 µM came to 40.4 ± 1.1%. The “SI (48h Gd)” value in assay [3] is > 5. Besides, the inhibition at 50 µM was 4.72% in assay [4], 0.25% in assay [5], 6.73% in assay [6] and -6.6% in assay [7].
On to `O=C(NC1CCCCC1)c1nc(Nc2ccccc2)c2ccccc2n1` [SN00792461, O=C(NC1CCCCC1)c1nc(Nc2ccccc2)c2ccccc2n1], for which the inhibition at 10 µM in assay [1] (setting [8]) was 44.7%; in assay [1] (setting [9]), 74.4%; in assay [1] (setting [10]), 59.5%; in assay [1] (setting [11]), 57.7%; in assay [1] (setting [12]), 88.5%; in assay [1] (setting [13]), 73.1%. In addition, the IC50 in assay [2] (setting [14]) was determined as 5.35 µM; in assay [2] (setting [15]), 7.82 µM. Moreover, the inhibition at 20 µM in assay [3] came out at 21.3 ± 27.1%. Further, the “SI (48h Gd)” value in assay [3] is > 2. Further, the inhibition at 50 µM in assay [4] worked out at 10.8%; in assay [5], 3.63%; in assay [6] it was 12.6%; in assay [7], 8.09%.
In the case of `Cc1ccc(NC(=O)CN2C(=O)C3CCCCN3c3ccc(C(=O)N4CCCC4)cc32)cc1` (stereo not drawn) [SN00792764, Cc1ccc(cc1)NC(=O)CN1C(=O)C2CCCCN2c2ccc(cc12)C(=O)N1CCCC1], the inhibition at 10 µM in assay [1] (setting [8]) stood at 43.9%; in assay [1] (setting [9]), 27.1%; in assay [1] (setting [10]) it was 35.5%; in assay [1] (setting [11]), 59%; in assay [1] (setting [12]) it was 65.8%; in assay [1] (setting [13]) it was 62.4%. Moreover, the inhibition at 10 µM in assay [2] (read-out: % inhibition @ 10µM 48h (comment), Table S2 comment, 10 µM, 48 h) turned out to be 45.9%. For the same molecule, the IC50 in assay [2] (setting [14]) and in assay [2] (setting [15]) was > 10 µM in each case. Besides, the inhibition at 20 µM in assay [3] worked out at 16.6 ± 20.4%. Besides, the inhibition at 50 µM was 4.12% in assay [4], 3.43% in assay [5], 5.08% in assay [6] and -1.85% in assay [7].
As to `CCOc1ccc(CCNC(=O)c2ccc3c(c2)nc2n3CCOC2)cc1OCC` [SN00792841, CCOc1cc(CCNC(=O)c2ccc3c(c2)nc2COCCn32)ccc1OCC], the inhibition at 10 µM in assay [1] (setting [8]) is 41.7%; in assay [1] (setting [9]) it was 12.7%; in assay [1] (setting [10]), 27.2%; in assay [1] (setting [11]), 88.5%; in assay [1] (setting [12]) it was 71.1%; in assay [1] (setting [13]), 79.8%. The IC50 in assay [2] (setting [14]) is > 10 µM; in assay [2] (setting [15]) it was 4.75 ± 4.02 µM. Moreover, the inhibition at 20 µM in assay [3] is -24.8 ± 15.3%. Further, the “SI (48h Gd)” value in assay [3] is given as > 4. The inhibition at 50 µM in assay [4] is 2.57%; in assay [5] it was -0.09%; in assay [6], 7.3%; in assay [7], -0.24%.
Regarding `COc1ccccc1N1CCN(C(=O)c2cc3c(C)nn(-c4ccc(C)cc4)c3s2)CC1` [SN00793100, COc1ccccc1N1CCN(CC1)C(=O)c1cc2c(C)nn(c3ccc(C)cc3)c2s1], the inhibition at 10 µM in assay [1] (setting [8]) was 51.9%; in assay [1] (setting [9]), 44%; in assay [1] (setting [10]), 48%; in assay [1] (setting [11]), 62.1%; in assay [1] (setting [12]), 69.2%; in assay [1] (setting [13]), 65.6%. Further, the IC50 in assay [2] (setting [14]) and in assay [2] (setting [15]) was > 10 µM throughout. In addition, the inhibition at 20 µM in assay [3] amounted to 46.7 ± 6.8%. The inhibition at 50 µM in assay [4] was 9.06%; in assay [5], 1.35%; in assay [6], 7.52%; in assay [7], 10.1%.
Take `COc1ccc(Nc2cc(C)nc(N3CCN(C(=O)Nc4cccc(OC)c4)CC3)n2)cc1` [SN00793512, COc1ccc(cc1)Nc1cc(C)nc(n1)N1CCN(CC1)C(=O)Nc1cccc(OC)c1]: the inhibition at 10 µM in assay [1] (setting [8]) is 50.6%; in assay [1] (setting [9]) it was 48.1%; in assay [1] (setting [10]) it was 49.3%; in assay [1] (setting [11]), 88.7%; in assay [1] (setting [12]), 84.5%; in assay [1] (setting [13]), 86.6%. Besides, the results for the IC50 in assay [2] (setting [14]) and in assay [2] (setting [15]) were 8.74 µM and 8.63 ± 1.91 µM, respectively. In addition, the inhibition at 20 µM in assay [3] was 35.2 ± 2.5%. The “SI (48h Gd)” value in assay [3] is recorded as > 2. The inhibition at 50 µM came out at 16.8% in assay [4], 3.7% in assay [5], 4.81% in assay [6] and 6.36% in assay [7].
In the case of `COc1ccc(NC(=O)c2ccc(-c3cc(NC4CCCCC4)ncn3)cc2)cc1` [SN00794765, COc1ccc(cc1)NC(=O)c1ccc(cc1)c1ncnc(NC2CCCCC2)c1], the inhibition at 10 µM in assay [1] (setting [8]) was 29.5%; in assay [1] (setting [9]) it was 4.7%; in assay [1] (setting [10]), 17.1%; in assay [1] (setting [11]), 63.5%; in assay [1] (setting [12]) it was 38.6%; in assay [1] (setting [13]) it was 51%. Moreover, the half-maximal inhibitory concentration (IC50) in assay [2] (setting [14]) and in assay [2] (setting [15]) was > 10 µM each time. In addition, the inhibition at 20 µM in assay [3] amounted to 23.1 ± 8.6%. Also, the inhibition at 50 µM in assay [4] is -0.4%; in assay [5], 3.31%; in assay [6] it was 1.61%; in assay [7], 2.05%.
As to `O=C(Cc1csc2nc(-c3ccccc3)cn12)Nc1ccc(Cl)cc1` [SN00796218, Clc1ccc(cc1)NC(=O)Cc1csc2nc(cn12)c1ccccc1], the inhibition at 10 µM in assay [1] (setting [8]) is 47.2%; in assay [1] (setting [9]), 48%; in assay [1] (setting [10]) it was 47.6%; in assay [1] (setting [11]), 59.9%; in assay [1] (setting [12]), 75.5%; in assay [1] (setting [13]) it was 67.7%. Besides, the IC50 in assay [2] (setting [14]) and in assay [2] (setting [15]) was > 10 µM each time. Besides, the inhibition at 20 µM in assay [3] worked out at 29.7 ± 10.3%. In addition, the inhibition at 50 µM in assay [4] is 4.35%; in assay [5], 3.03%; in assay [6] it was 3.63%; in assay [7] it was -2.23%.
